Columns and labels:
[1] = tested on: wild-type HIV1 3B reverse transcriptase (virus infecting MT4 cells); test: Inhibition of wild-type HIV1 3B reverse transcriptase infected in human MT4 cells assessed as protection against virus-induced cytotoxicity by MTT assay
[2] = tested on: HIV1 RES056 reverse transcriptase K103N/Y181C double mutant (virus infecting MT4 cells); test: Inhibition of HIV1 RES056 reverse transcriptase K103N/Y181C double mutant infected in human MT4 cells assessed as protection against virus-induced cytotoxicity by MTT assay
[3] = Inhibition of HIV1 reverse transcriptase E138K mutant infected in human MT4 cells assessed as protection against virus-induced cytotoxicity by MTT assay
[4] = Inhibition of HIV1 reverse transcriptase K103N mutant infected in human MT4 cells assessed as protection against virus-induced cytotoxicity by MTT assay
[5] = Inhibition of HIV1 reverse transcriptase Y188L mutant infected in human MT4 cells assessed as protection against virus-induced cytotoxicity by MTT assay
[6] = Inhibition of HIV1 reverse transcriptase L100I mutant infected in human MT4 cells assessed as protection against virus-induced cytotoxicity by MTT assay
[7] = Inhibition of HIV1 reverse transcriptase F227L/V106A double mutant infected in human MT4 cells assessed as protection against virus-induced cytotoxicity by MTT assay
[8] = Inhibition of HIV1 reverse transcriptase Y181C mutant infected in human MT4 cells assessed as protection against virus-induced cytotoxicity by MTT assay

SMILES	EC50 [1] [nM]	EC50 [2] [nM]	other results
Cc1cc(C#N)cc(C)c1Oc1nc(NC2CCN(Cc3cc(=O)[nH]c(=O)[nH]3)CC2)nc2ccsc12	7.2	8970	EC50 [3]: 7 nM; EC50 [4]: 6.1 nM
Cc1cc(C#N)cc(C)c1Oc1nc(NC2CCN(Cc3ccc(C(N)=O)cc3)CC2)nc2ccn(S(=O)(=O)c3ccccc3)c12	17	2290	–
Cc1cc(/C=C/C#N)cc(C)c1Nc1nc(NC2CCN(Cc3ccc(S(N)(=O)=O)cc3)CC2)nc2ccsc12	1.2	5	–
Cc1cc(C#N)cc(C)c1Oc1nc(NC2CCN(Cc3cn(S(C)(=O)=O)cn3)CC2)nc2ccsc12	5.7	2700	EC50 [3]: 13 nM; EC50 [4]: 4.5 nM
Cc1cc(C#N)cc(C)c1Oc1nc(NC2CCN(Cc3ccc(S(C)(=O)=O)cc3)CC2)nc2cc[nH]c12	5.9	116	–
Cc1cc(C#N)cc(C)c1Oc1nc(NC2CCN(Cc3ccc(C(N)=O)cc3)CC2)nc2ccn(COCc3ccccc3)c12	36	567	–
Cc1cn([C@H]2C[C@H](N=[N+]=[N-])[C@@H](CO)O2)c(=O)[nH]c1=O [1-((2R,4S,5S)-4-Azido-5-hydroxymethyl-tetrahydro-furan-2-yl)-5-methyl-1H-pyrimidine-2,4-dione]	7	17	–
Cc1cc(C#N)cc(C)c1Oc1nc(NC2CCN(Cc3ccco3)CC2)nc2ccsc12	3.6	> 272000	EC50 [3]: 8.8 nM
Cc1cc(C#N)cc(C)c1Oc1nc(NC2CCN(Cc3ccc(S(C)(=O)=O)cc3)CC2)nc2ccn(S(=O)(=O)c3ccccc3)c12	31	187	–
Cc1cc(C#N)cc(C)c1Oc1nc(Nc2ccc(C#N)cc2)nc(N)c1Br	4	34	–
Cc1cc(C#Cc2ccncc2)cc(C)c1Oc1nc(NC2CCN(Cc3ccc(S(N)(=O)=O)cc3)CC2)nc2ccsc12	34	223	–
Cc1cc(C#N)cc(C)c1Oc1nc(NC2CCN(Cc3ccc(S(N)(=O)=O)cc3)CC2)nc2cc[nH]c12	2.4	85	EC50 [5]: 7.2 nM; EC50 [3]: 4 nM; EC50 [6]: 4.2 nM; EC50 [4]: 1 nM; EC50 [7]: 18 nM; EC50 [8]: 4.8 nM
Cc1cc(C#Cc2ccccn2)cc(C)c1Oc1nc(NC2CCN(Cc3ccc(S(N)(=O)=O)cc3)CC2)nc2ccsc12	9	888	–
Cc1cc(C#N)cc(C)c1Oc1nc(NC2CCN(Cc3ccc(C(N)=O)cc3)CC2)nc2cc[nH]c12	5.7	113	–
Cc1ccnc2c1NC(=O)c1cccnc1N2C1CC1 [BI-RG-587]	124	> 15000	–
Cc1cc(C#N)cc(C)c1Oc1nc(NC2CCN(Cc3ccc(S(C)(=O)=O)cc3)CC2)nc2ccn(COCc3ccccc3)c12	26	547	–
Cc1cc(C#N)cc(C)c1Oc1nc(NC2CCN(Cc3ccc(N4CCCC4)cc3)CC2)nc2ccsc12	33	> 4360	–
Cc1cc(C#N)cc(C)c1Oc1nc(NC2CCN(Cc3n[nH]c(=O)n3C)CC2)nc2ccsc12	14	17100	–
Cc1cc(C#N)cc(C)c1Oc1nc(NC2CCN(Cc3ccc(S(N)(=O)=O)cc3)CC2)nc2ccn(S(=O)(=O)c3ccccc3)c12	8.9	110	–
Cc1cc(C#Cc2cccnc2)cc(C)c1Oc1nc(NC2CCN(Cc3ccc(S(N)(=O)=O)cc3)CC2)nc2ccsc12	41	153	–
Cc1cc(C#N)cc(C)c1Oc1nc(NC2CCN(Cc3ccc(S(N)(=O)=O)cc3)CC2)nc2ccn(COCc3ccccc3)c12	9.5	484	–
Cc1cc(C#N)cc(C)c1Oc1nc(NC2CCN(Cc3c[nH]cn3)CC2)nc2ccsc12	5.5	1170	EC50 [3]: 12 nM; EC50 [4]: 6 nM
Cc1cc(C#N)cc(C)c1Nc1nc(NC2CCN(Cc3ccc(S(N)(=O)=O)cc3)CC2)nc2ccsc12	1.4	31	–
